We go through 2 compounds from patent US8796249B2, “TGR5 modulators and methods of use thereof” (Intercept Pharmaceuticals, Inc., priority 2008, dated 2014).

A word on the EC50: it is the concentration that produces a half-maximal response.

One data set has as its target T1, hFXR (Homo sapiens, UniProt Q96RI1).
T1 sequence (Q96RI1 1-486): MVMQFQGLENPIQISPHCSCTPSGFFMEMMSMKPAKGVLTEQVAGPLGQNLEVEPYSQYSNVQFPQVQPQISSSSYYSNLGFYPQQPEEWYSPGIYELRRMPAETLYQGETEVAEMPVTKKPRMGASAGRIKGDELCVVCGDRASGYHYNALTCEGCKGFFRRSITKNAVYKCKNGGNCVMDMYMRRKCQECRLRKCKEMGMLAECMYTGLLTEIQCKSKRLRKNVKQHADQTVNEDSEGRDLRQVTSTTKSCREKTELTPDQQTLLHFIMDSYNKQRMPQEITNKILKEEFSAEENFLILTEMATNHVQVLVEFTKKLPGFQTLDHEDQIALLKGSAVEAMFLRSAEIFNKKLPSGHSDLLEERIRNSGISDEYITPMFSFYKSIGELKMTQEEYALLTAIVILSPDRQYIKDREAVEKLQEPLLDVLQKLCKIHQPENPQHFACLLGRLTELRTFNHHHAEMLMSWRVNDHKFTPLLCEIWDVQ
Description: Alphascreen coactivator recruitment assay on hFXR. It is filed as biochemical. As to the method: (§1) The selectivity of compounds of the invention was evaluated using assay methods known in the art. Specifically, the following assay methods were used: • FXR and LXR: Coactivator Recruitment (alphascreen); • TGR5: cAMP level on human intestinal cell line (NCI-H716); • PXR: Ligands Competition assay (Binding Assay) • CAR: Coactivator Recruitment (Lanthascreen)

The target in the next data set is T2, LXRα (Homo sapiens, UniProt Q13133).
T2 sequence (Q13133 1-447): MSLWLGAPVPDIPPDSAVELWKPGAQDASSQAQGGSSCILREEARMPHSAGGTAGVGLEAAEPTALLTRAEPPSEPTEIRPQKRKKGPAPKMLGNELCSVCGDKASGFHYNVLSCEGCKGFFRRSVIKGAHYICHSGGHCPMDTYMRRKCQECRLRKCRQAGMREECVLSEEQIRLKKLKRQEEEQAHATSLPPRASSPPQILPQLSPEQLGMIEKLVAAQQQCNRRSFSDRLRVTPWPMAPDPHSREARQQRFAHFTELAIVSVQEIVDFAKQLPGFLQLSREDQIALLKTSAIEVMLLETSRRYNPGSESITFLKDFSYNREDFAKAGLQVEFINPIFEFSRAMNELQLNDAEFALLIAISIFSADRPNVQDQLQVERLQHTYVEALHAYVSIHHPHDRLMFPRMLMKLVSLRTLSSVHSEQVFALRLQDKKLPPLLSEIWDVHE
Description: LXR coactivator recruitment (alphascreen). It is filed as biochemical. The following applies: ref standard T0901317. As to the method: as §1
On the technique in general: In Alpha technology, singlet oxygen from a donor bead excites a nearby acceptor bead.

A further data set has as its target T3, PXR (Homo sapiens, UniProt O75469).
T3 sequence (O75469 1-434): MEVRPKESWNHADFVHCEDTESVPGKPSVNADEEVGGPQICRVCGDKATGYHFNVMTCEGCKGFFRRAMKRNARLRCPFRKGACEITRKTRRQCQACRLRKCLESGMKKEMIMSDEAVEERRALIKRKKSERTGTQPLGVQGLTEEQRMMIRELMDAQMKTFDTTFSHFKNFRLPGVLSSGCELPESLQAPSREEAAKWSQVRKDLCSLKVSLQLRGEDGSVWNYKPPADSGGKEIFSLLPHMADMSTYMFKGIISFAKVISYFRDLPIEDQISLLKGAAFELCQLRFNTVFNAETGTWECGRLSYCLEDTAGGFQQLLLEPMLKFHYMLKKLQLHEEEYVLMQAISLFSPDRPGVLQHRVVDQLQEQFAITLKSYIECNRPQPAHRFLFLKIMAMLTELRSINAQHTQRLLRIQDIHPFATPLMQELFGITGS
Description: PXR ligands competition assay (binding assay). As to the method:
as §1

A further data set is described as follows: Water solubility. In kind it is physicochemical. The following applies: for Ws (water solubility): BA as protonated species, 0.1 M HCl, pH 1, hs = highly soluble, not evaluated; for solubility in biological fluids: ionized even at low pH, physiological conditions. As to the method:
Solid compound (BA) was suspended in 5 ml of 0.1 M HCl. […] The flow rate was 150 μl/min. The mass spectrometry acquisition was performed in the multiple reaction monitoring mode using the ESI source in negative ionization. Water solubility was expressed as μmol/liter.
The water solubility was measured for the insoluble protonated species of carboxylated bile acids at a pH 1.

A short description of data set [1]: 1-Octanol/water partition coefficient (shake-flask). It is filed as physicochemical. The following applies: ionized species, pH 8. The method, then: Since the sulphate and sulphonated analogues are always ionised at all pH values the octanol/water partition coefficient was measured for all molecules in ionized form. 1-Octanol/water partition coefficient (log P) was evaluated using a conventional shake-flask procedure. […] The aqueous buffer was previously pre-saturated with 1-octanol, 5 ml of 1-octanol pre-saturated with water was then added and the samples were left to equilibrate for 2 weeks under continuous stirring at room temperature After centrifugation the two phases were carefully separated. BA concentration in the water phase was measured with HPLC-ESI ? MS/MS using C18 column (150 mm×2 mm i.d., 4 μm) and, as mobile phases, water containing 15 mM acetic acid pH 5 and acetonitrile. The flow rate was 150 μal/min and the column was maintained at 45° C. The mass spectrometry acquisition was performed in the multiple reaction monitoring mode using the ESI source in negative ionization.

The target in another data set is T4, bovine serum albumin (Bos taurus, UniProt P02769).
T4 construct: dissolved at a concentration of 100 μM in 5% bovine serum albumin-saline solution (pH 7.2); from tissue; host or cells: bovine serum (only from the protein's name)
Briefly: Albumin binding by equilibrium dialysis. The following applies: 100 μM BA in 5% bovine serum albumin-saline, pH 7.2. In kind it is in vitro ADME. As to the method:
The extent of albumin binding was evaluated by equilibrium dialysis at a fixed BA-albumin ratio. BA was dissolved at a concentration of 100 μM in 5% bovine serum albumin-saline solution (pH 7.2) and left to stand for 24 h at 25° C. Two milliliters of this solution was dialyzed in cellulose sacs having a molecular weight cut-off of 12-14,000 against 25 ml of saline solution. The system was equilibrated by mechanical gently shaking for 72 h at 25° C. BA concentrations of the dialyzed solution (corresponding to the free unbound fraction) and of the starting solution were determined with HPLC-ESI-MS/MS in the same conditions of the previous analysis. The percent of albumin binding was calculate from the initial BA concentration and from the unbound concentration in the dialyzed fraction. All these compounds never less present an albumin binding compatible with a relatively fast hepatic uptake, similarly to natural occurring BA. Accordingly different kinetics (slower) of the liver uptake is expected.
Background: In equilibrium dialysis only unbound substance equilibrates across the membrane.

The nature of data set [2]: HepG2 cell cytotoxicity, ATP decrease. It is filed as cell-based. The following applies: human. The method, then: (§2) Compounds of the invention were evaluated for cytotoxicity using standard methods known in the art. Specifically, cytotoxicity was evaluated using HEPG2 cells and monitoring ATP decrease and determining the EC50 value. […]
In the next data set the test system is HepG2 cell. Description: HepG2 cell cytotoxicity, ATP decrease. In kind it is cell-based. The following applies: human. As to the method:
as §2

A further data set deals with Intestinal Bacteria. Description: In vitro metabolic stability in human stool culture. The following applies: human stool culture.
[3] abbreviates: NR selectivity table, coactivator recruitment (alphascreen), ref standard CDCA, read-out: FXR EC50.
Setting [4] is: Table 1, reference standard CDCA, read-out: Alphascreen Assay hFXR EC50.

Where “and” joins values, the source holds several entries; their conditions need not be identical. Identical values can stand only once. Counter-ions that a name gives are not always drawn. Like-named read-outs stand apart in the source and are kept apart here.

T4 sequence (P02769 25-607): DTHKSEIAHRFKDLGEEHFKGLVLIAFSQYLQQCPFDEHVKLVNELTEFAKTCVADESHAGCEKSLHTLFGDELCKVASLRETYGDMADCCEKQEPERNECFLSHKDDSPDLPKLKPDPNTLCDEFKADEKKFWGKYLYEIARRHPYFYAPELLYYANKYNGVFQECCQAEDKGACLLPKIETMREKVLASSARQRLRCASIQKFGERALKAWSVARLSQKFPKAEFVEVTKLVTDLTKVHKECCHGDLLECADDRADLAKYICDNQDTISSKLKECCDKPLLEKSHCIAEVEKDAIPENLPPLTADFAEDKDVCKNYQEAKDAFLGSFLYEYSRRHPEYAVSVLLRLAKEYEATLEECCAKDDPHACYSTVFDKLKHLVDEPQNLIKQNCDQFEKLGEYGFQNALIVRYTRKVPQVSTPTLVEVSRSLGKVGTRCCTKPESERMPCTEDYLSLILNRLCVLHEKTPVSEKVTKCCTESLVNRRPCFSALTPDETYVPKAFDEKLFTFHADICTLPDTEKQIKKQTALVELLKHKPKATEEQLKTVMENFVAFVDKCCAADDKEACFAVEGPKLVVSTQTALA
Description for Intestinal Bacteria: Homogenized fresh human stools (500 mg) were transferred into sterile vials to which 5 mL of sterilized chopped meat-glucose medium (Scott Lab., Fiskville, R.I.) was added. BA were then added at a final concentration of 0.05 mM. Vials were incubated at 37° C.; then, at 0, 1, 2, 4, 8 and 24 h after the addition of the BA, the reaction was stopped with 150 μL of 30% KOH. The samples were centrifuged at 3500 rpm for 10 min; from the supernatant the BA were isolated by C-18 solid-phase extraction and analyzed by TLC and HPLC-ES-MS/MS.
Thin-layer chromatography (TLC), utilizing silica gel 0.25 mm thickness plates (Merck, Darmstat, Germany), was employed as the first screening test. The solvent system used for the separation of conjugated BA was composed of propionic acid/isoamyl acetate/water/N-propanol (3:4:1:2, v/v/v/v; solvent I), and that of the unconjugated BA was acetic acid/carbon tetrachloride/isopropyl ether/isoamyl acetate/water/N-propanol/benzene (1:4:6:8:2:2, v/v/v/v/v/v; solvent II).

Consider `CCC1C(O)C2C3CCC(C(C)CC(C)OS(=O)(=O)O)C3(C)CCC2C2(C)CCC(O)CC12` [Compound 2A, 3α,7α,23-trihydroxy-6α-ethyl-23(S)-methyl-24-nor-5β-cholan-23-sulfate Sodium Salt], for which the EC50 at hFXR (setting [3]) was 0.14 µM; at hFXR (setting [4]) it was 0.145 ± 0.05 µM; at PXR it was 21 µM; in data set [2], over 1 mM; in the data set on HepG2 cell it was over 1 mM. In addition, at LXRα, the “LXRα EC50” value is “No”. The “Ws (water solubility)” value in the data set “Water solubility” is reported as “hs”. The “solubility in biological fluids” value in the data set “Water solubility” is recorded as “always soluble in all biological fluids”. Further, in [1], the “LogPA- (1-octanol-water partition coefficient)” value is on record as 2.3. For the same compound, the “Albumin Binding” value on bovine serum albumin was 97%. In addition, the side chain stability entry in the data set on Intestinal Bacteria is on record as “quite stable”.

Consider `CC[C@H]1[C@@H](O)[C@@H]2[C@H](C[C@H](O)[C@]3(C)[C@@H]([C@H](C)CCCS(=O)(=O)[O-])CC[C@@H]23)[C@@]2(C)CC[C@@H](O)C[C@@H]12.[Na+]` [Compound 3A, 3α,7α,12α-trihydroxy-6α-ethyl-5β-cholan-24-sulfonate Sodium Salt], for which the EC50 is 7 µM on hFXR (setting [3]); 7 ± 3 µM at hFXR (setting [4]); 150 µM on PXR; over 1 mM in data set [2]; over 1 mM in the data set on HepG2 cell. In addition, the “LXRα EC50” value on LXRα is given as “No”. For the same compound, the “Ws (water solubility)” value in the data set “Water solubility” is reported as “hs”. In addition, the “solubility in biological fluids” value in the data set “Water solubility” is “always soluble in all biological fluids”. Besides, the “LogPA- (1-octanol-water partition coefficient)” value in [1] (Sodium Salt) was 0.71 and 0.7. The “Albumin Binding” value at bovine serum albumin is 81%. The side chain stability entry in the data set with Intestinal Bacteria is “very stable”.
